Data on 70 compounds can be found in PubChem BioAssay AID179 (DTP/NCI, 2004).

Several values for one entry are separate records, joined by “and”; a condition that tells them apart may be missing. Equal values may be shown once. Activity calls are given as the source filed them.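 The calls were made as follows: active = compounds giving half or more protection of infected cells from virus-caused growth loss, again on retest; inactive = the rest.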 *1 amine or outer side, *2 acyl side, *3 side chain or, on linkers, in order; H or OH if unused. Where a SMILES comes first, the peptide text is derived from it. [ ]: non-standard residue; d: D form. X7 = NC(N)=NCC(O)CC(N[*:1])C(=O)[*:2]; Orn = NCCC[CH](N)C(=O)O

The test relates to CEM cells HIV-1 protection, formazan growth assay. Kind of test: NCI AIDS Antiviral Assay. The following applies: for IC50: measured here: growth of uninfected CEM cells. The gist of the method: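 Steps: treat uninfected and HIV-1-infected human CEM cells at five drug levels; quantify growth by soluble formazan; retest any compound reaching 50% protection; classify actives from the retest.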

As to `COc1cccc(NC(=O)N/C(=C/c2ccc(N(CCC#N)CCC#N)cc2)NC(=O)c2cc([N+](=O)[O-])ccc2Cl)c1`, the EC50 (commonly the concentration that produces a half-maximal response) was > 12.3 µM and the IC50 (commonly the concentration that inhibits the measured activity by half) worked out at 11.5 µM. Taken in the same sequence, the figures for `O=P(O)(O)Cc1c(Cl)c(Cl)c(CP(=O)(O)O)c(Cl)c1Cl` were > 200 µM and > 200 µM. On to `Cc1nn2c(=O)n(-c3cccc(-n4nnc5c(-c6ccccc6)c(C)nn5c4=O)c3C)nnc2c1-c1ccccc1`, for which the result was inactive. Same read-out and setting: then `O=S1(=O)C(c2ccc(F)cc2)=C(O)c2cc3ccccc3nc21`, with “inactive”.

For `CCOC(=O)/C=C1\CCC(C)n2c1nccc2=O` (stereo not drawn), the EC50 is > 200 µM and the IC50 was 110 µM. Taken in the same sequence, the figures for `COC(=O)[C@H](Cc1ccccc1)NC(=O)N1CCN(C(=O)N[C@@H](Cc2ccccc2)C(=O)OC)CCN(C(=O)N[C@@H](Cc2ccccc2)C(=O)OC)CC1` were > 200 µM and > 200 µM. As for `O=[N+]([O-])c1ccc2c(c1)Sc1ccccc1N2CCCCCl`, the EC50 is > 200 µM and the IC50 is 19.1 µM. As for `COC(=O)CN1CCSC1=NC#N`, the result was inactive. For `C[C@H](CCC1=NCCN1)[C@H]1CC[C@H]2[C@@H]3CC[C@@H]4C[C@H](O)CC[C@]4(C)[C@H]3C[C@H](O)[C@]12C`, the EC50 was > 200 µM and the IC50 worked out at 11.5 µM. Taken in the same sequence, the figures for `S=c1[nH]nc(C23CC4CC(CC(C4)C2)C3)n1-c1ccc(Cl)cc1` were > 200 µM and 23.4 µM.

With `CC(=O)/C(=C/c1ccc(N(C)C)cc1)C(=O)c1ccccc1`, the EC50 is > 6.76 µM and the IC50 is > 6.76 µM. As to `N=C1OC(CN2CCN(c3ccccc3)CC2)CN1C(=O)Nc1ccccc1` (stereo not drawn), the EC50 was > 200 µM and the IC50 was > 200 µM. Consider `COc1ccc(N2CC(=O)N(C(=O)COc3ccc(OCC(=O)N4C(=O)CN(c5ccc(OC)cc5)C4=S)cc3)C2=S)cc1`, for which the EC50 is > 200 µM and the IC50 was 87.1 µM.

Regarding `Cc1cn(COCCOS(C)(=O)=O)c(=O)[nH]c1=O`, the EC50 is > 200 µM and the IC50 was > 200 µM. Consider `C=C1CN(S(=O)(=O)c2ccc(C)cc2)CCCN(CC2CC=CCC2)CCCN(S(=O)(=O)c2ccc(C)cc2)C1` (stereo not drawn), for which the EC50 is > 200 µM and the IC50 came to 1.29 µM. `CN1C(=O)CSC1=S`: the EC50 was > 1700 µM; the IC50 was 4.79 µM and 36.3 µM. `CC(C)(C)NNc1c([N+](=O)[O-])cnn(-c2ccccc2)c1=O`: the EC50 was > 49 µM and the IC50 came to 0.251 µM. As to `Nc1ccc2cc3ccc(N)cc3nc2c1`, the EC50 is > 200 µM; the IC50 is 1.12 µM and 0.692 µM.

On to `CCN(CC)CC1CCCCN1CC(=O)N1c2ccccc2C(=O)Nc2cccnc21` (stereo not drawn), for which the EC50 was > 200 µM and the IC50 was 32.4 µM. Taken in the same sequence, the figures for `CSCCC(N)C(=O)NCCNc1ccc(NCCNC(=O)C(N)CCSC)c2c1C(=O)c1ccccc1C2=O` (stereo not drawn) were > 151 µM and 0.219 µM. Taken in the same sequence, the figures for `CCCCN1C(=O)c2cccc3cccc(c23)C1=O` were > 200 µM and 112 µM.

With `CC(=O)/C(C=Nc1c(C)n(C)n(C)c1=O)=C(/O)c1ccccc1`, the EC50 is > 200 µM and the IC50 turned out to be 89.1 µM. For `CC(O)C(NC(=O)C(CCCN)NC(=O)C(CC(O)CN=C(N)N)NC(=O)C(N)CCCN=C(N)N)C(=O)NC(CCCN)C(=O)NC(CC(O)CN=C(N)N)C(=O)NC(Cc1ccc(O)cc1)C(=O)O` (stereo not drawn) (H-R[X7][Orn]T[Orn][X7]Y-OH; configuration not given here), the EC50 is > 245 µM and the IC50 is 174 µM. Taken in the same sequence, the figures for `Cc1cc(C)n2c(=O)[nH]nc2c1` were > 200 µM and 178 µM.

For `CC1(C)SC(C)(C)N2C(=O)[C@H]3N(C(=O)[C@@H]21)C(C)(C)SC3(C)C`, the EC50 is > 75.9 µM and the IC50 is > 75.9 µM. `O=C1OC(CCCl)(c2ccccc2)CC1CN1CCOCC1` (stereo not drawn): the EC50 is > 692 µM and the IC50 came to 10.5 µM. Regarding `O=C(CCC(=O)N/N=C/c1ccccc1O)N/N=C/c1ccccc1O`, the result was inactive. As for `CCN1CCC(O)(c2ccc(OC)cc2)C(C(=O)c2ccc(OC)cc2)C1` (stereo not drawn), the EC50 was > 550 µM and the IC50 came out at 14.5 µM. Turning to `O=C1/C(=C/c2cccc(O)c2)SC(=S)N1/C=C\c1nc2ccccc2[nH]c1=O`, the EC50 is > 200 µM and the IC50 was determined as 81.3 µM. Taken in the same sequence, the figures for `O=C(O)CC(NC(=O)/C(=C/c1ccccc1)NC(=O)c1ccccc1)C(=O)O` (stereo not drawn) were > 200 µM and > 200 µM. On to `c1cncc(CN2CCCCC2)c1`, for which the outcome was inactive. For `N=c1o[n-][n+](-c2ccccc2)c1-c1ccccc1`, the result was inactive. For `CCc1c(OC)oc(CCCCCCCCCC(C)C(C)=O)c(C)c1=O` (stereo not drawn), the EC50 was > 25.1 µM and the IC50 came to 0.0372 µM.

Regarding `c1cnc2c(c1)-n1cccc1C1(CCOCC1)NN2`, the EC50 is > 200 µM and the IC50 was > 200 µM.

`CC(C)CC(NC(=O)C(Cc1ccc(O)cc1)NC(=O)C(CO)NC(=O)C(N)CCC(N)=O)C(=O)NCC(=O)O` (stereo not drawn) (H-QSYLG-OH; configuration not given here): the outcome was inactive.

Take `CC1(C)C(C(=O)O)C1C(=O)O` (stereo not drawn): the EC50 was > 200 µM and the IC50 is > 200 µM.

As to `CC1=CO[C@@H]2O[C@@]3(C)CC[C@H]4[C@H](C)CC[C@@H]1[C@@]24O3`, the EC50 was > 200 µM and the IC50 was > 200 µM. Turning to `O=C1OI(C#Cc2ccccc2)c2ccccc21`, the EC50 is > 20 µM and the IC50 stood at 3.31 µM. Taken in the same sequence, the figures for `CN1CC2=C(NC(=S)NC2c2ccccc2Cl)/C(=C/c2ccccc2Cl)C1` (stereo not drawn) were > 200 µM and 13.2 µM.

Consider `c1ccc([P+](Cc2cccc3c2Cc2ccccc2-3)(c2ccccc2)c2ccccc2)cc1`, for which the EC50 was > 200 µM and the IC50 is 0.891 µM. For the compound `CCC(=O)NCC1CCCN2CCCCC12` (stereo not drawn), the EC50 was > 200 µM and the IC50 is > 200 µM. As for `COc1ccc(NC(=O)/C(=C/c2ccccc2)C(C)=O)cc1`, the EC50 was > 123 µM and the IC50 was determined as 18.6 µM. Taken in the same sequence, the figures for `CC1Oc2c3c(cc(O)c2C(=O)[C@@H]1C)OC(C)(C)CC3` (stereo partly drawn) were > 200 µM and 50.1 µM. Taken in the same sequence, the figures for `CC(=O)NNC(=S)/N=C/c1c(O)cc(C)oc1=O` were > 200 µM and > 200 µM.

For the compound `OCc1ncccc1O`, the EC50 is > 200 µM and the IC50 was > 200 µM. Turning to `C=C1C(=O)O[C@H]2CC(C)C3C(O)CC(O)[C@@]3(C)C[C@H]12` (stereo partly drawn), the EC50 is > 933 µM and the IC50 turned out to be 6.03 µM. Taken in the same sequence, the figures for `O=C(O)CCCCCCCCCCCC(=O)O` were > 148 µM and > 148 µM. Taken in the same sequence, the figures for `CC(=O)OC[C@]12[C@H](OC(C)=O)[C@H](OC(C)=O)[C@@H]3C(OC(C)=O)[C@@]14OC3(C)COC(=O)c1cccnc1CCC(C)C(=O)OC([C@H](OC(C)=O)[C@@H]2OC(=O)c1ccccc1)[C@]4(C)O` (stereo partly drawn) were > 38.9 µM and > 38.9 µM. Taken in the same sequence, the figures for `C[N+]1(C)CN(c2ccccc2)C2(CCN(CCCC(=O)c3cccs3)CC2)C1=O` were > 200 µM and 55 µM. Take `C=C(C)CNC1=C(C)C(=O)C2=C(C1=O)[C@H](COC(N)=O)[C@]1(OC)[C@@H]3N[C@@H]3CN21`: the EC50 is > 200 µM and the IC50 came to 14.5 µM. For `C[C@H](N)C(O)C/C=C\CC(O)/C=C/C=C\C/C=C\C/C=C\C/C=C\CCCCCCC(O)[C@H](C)N` (stereo partly drawn), the outcome was inactive. As for `CC(=O)OC1SC(c2c(F)cccc2F)n2c1nc1ccccc12` (stereo not drawn), the EC50 was 38 µM and the IC50 was found to be 126 µM. Taken in the same sequence, the figures for `CC(C)O/N=C/c1cc(NC(=S)OC(C)C)ccc1Cl` were 0.0447 µM and 22.9 µM.

In the case of `COc1cc(O)c2c(c1O)C(=O)c1cc(C)ncc1C2=O`, the result was inactive. For `COC(=O)c1ccc(CCC2=CC(=O)C(Br)=CC2=O)cc1`, the EC50 is > 200 µM and the IC50 was 9.33 µM.

For the compound `O=C1C(=O)N(c2cc(Cl)ccc2Cl)C(=O)C(=O)C1c1nc2ccccc2o1`, the EC50 is > 24.5 µM and the IC50 is > 24.5 µM. `CCOC(=O)[C@@]12C[C@](/C=C/OC)(O[Si](C)(C)C)[C@@]13c1cc(OC)c(OC)cc1CCN3C(=O)C2O` (stereo partly drawn): the EC50 was > 200 µM and the IC50 is > 200 µM. As for `O=C(O)c1ccc2c(c1)C(=O)N(c1ccc(Oc3ccc(N4C(=O)c5ccc(C(=O)O)cc5C4=O)cc3)cc1)C2=O`, the result was inactive. `CON(C(=O)OC(C)(C)C)c1ccccc1`: the EC50 is 61.7 µM and the IC50 was > 200 µM. With `COc1cc2c(cc1OC)C(Cl)C(c1ccc(Cl)c(Cl)c1)=C2Cl` (stereo not drawn), the outcome was inactive. As to `CN1C(=O)c2ccccc2OC12C=Cc1ccc(O)cc1O2` (stereo not drawn), the EC50 is > 132 µM and the IC50 was determined as 45.7 µM. Consider `O=c1[nH]c(-c2ccccc2)nc2ccc(Cl)cc12`, for which the result was inactive.

For the compound `CNC(=O)N(CCC#N)[C@H]1CCCC[C@@H]1N(C(=O)NC)c1ccccc1`, the EC50 was > 200 µM and the IC50 was > 200 µM. In the case of `CC1(C)CCCCCCCCCC2CC2CCC(C)(C)C1=O` (stereo not drawn), the EC50 was > 200 µM and the IC50 is > 100 µM. Taken in the same sequence, the figures for `Clc1cccc(N2CCN(CCN3CCc4c([nH]c5ccccc45)C3c3cccnc3)CC2)c1` (stereo not drawn) were > 2.19 µM and > 2.19 µM. Taken in the same sequence, the figures for `O=c1cn[nH]c2c(Br)cc(Br)cc12` were > 70.8 µM and > 70.8 µM. For `OC(Cc1cnnc2ccccc12)C(Cl)(Cl)Cl` (stereo not drawn), the EC50 was > 200 µM and the IC50 amounted to 70.8 µM.

With `COc1ccc(-c2cc(C(=O)Nc3cc(C(F)(F)F)cc(C(F)(F)F)c3)c3ccccc3n2)cc1`, the EC50 was > 14.8 µM and the IC50 was > 14.8 µM. Consider `COC(=O)C(C(=O)C(=O)Nc1ccc(Br)cc1)c1nc2ccc(Cl)cc2[nH]c1=O` (stereo not drawn), for which the EC50 is > 75.9 µM and the IC50 is 4.07 µM. Taken in the same sequence, the figures for `CC(=O)OC12c3ccccc3C1CCCCCC21OCCCO1` (stereo not drawn) were > 200 µM and > 200 µM.
